{"source": "patent EP4722228A1", "about": "“NEW COMPOUND TARGETING MUSK AND USE THEREOF” (The University of Tokyo, priority 2023, dated 2024)", "system": "rat PTMG model using anti-acetylcholine receptor monoclonal antibody (mAb35)", "test": "Grip Strength Test in rat PTMG model", "type": "in vivo", "settings": "approx. 30 hours after antibody", "experimental": "(§1) 5-week-old female rats (n=20, LEW/CrlCrlj, 4 weeks old when carried in, Jackson Laboratory Japan) were divided into four groups (Group A, Group B, Group C, and Group D) using body weight measurement results as indexes. Vehicle was administered to Group A, and the test compound MuSK7-pal dissolved in vehicle was administered intravenously to each of Group B (3 mg/kg), Group C (2 mg/kg), and Group D (1 mg/kg) (Day 0). Two hours after intravenous administration, an anti-nicotinic acetylcholine receptor monoclonal antibody (mAb35, National Hospital Organization Nagasaki Kawatana Medical Center) dissolved in PBS (pH 7.4) as a drug for inducing the pathology of myasthenia gravis was administered intraperitoneally to all animals at 200 µg/rat (Day 0). The vehicle, which was a solvent of the compound, was phosphate-buffered saline (PBS) at pH 7.4 containing 20% hydroxypropyl-β-cyclodextrin and 0.02% polysorbate 80 (the same applies to Example 3(2)).\nApproximately 30 hours after antibody administration, the muscle strength of the rats was measured using a mouse grip strength meter (GRIP STRENGTH METER FOR MICE, MODEL MK-380M, Muromachi Kikai Co., Ltd.). Specifically, the rats were left for 15 minutes or longer, and after confirming that they were in a resting state, the forelimbs of the rats were made to grasp the mouse grip strength meter. Next, the bodies of the rats were pulled, and the scale of the grip strength meter at the point when the rats released the wire mesh was read (first measurement). The above procedure was repeated once more (second measurement). When the difference between the first and second measurement values was 20% or less, the average value thereof was used as the measurement value. When the difference was 20% or more, the above procedure was further performed once more (third measurement), and the average value of two measurements with close values among the three measurements was used as the measurement value.\nas §1, with “(n=24,” for “(n=20,”, “(0.5” for “(3”, “(0.25” for “(2”, “(0.1” for “(1”, “0).” for “0). The vehicle, which was a solvent of the compound, was phosphate-buffered saline (PBS) at pH 7.4 containing 20% hydroxypropyl-β-cyclodextrin and 0.02% polysorbate 80 (the same applies to Example 3(2)).”\nThe Grip Strength Test was performed approximately 30 hours after antibody administration. The implementation procedure was the same as that in (1) B above.\n5-week-old female rats (LEW/CrlCrlj, 4 weeks old when carried in, Jackson Laboratory Japan) were divided into three groups (Group A, Group B, and Group C) using body weight measurement results as indexes. The test compound (tetramer of Ub012 (EAAAK)3) dissolved in vehicle was administered intravenously to Group A (5 mg/kg) (n=5), the test compound (tetramer of Ub012(ΔGG) (EAAAK)3) dissolved in vehicle was administered intravenously to Group B (5 mg/kg) (n=5), and vehicle was administered intravenously to Group C (n=5), respectively (Day 0). Two hours after intravenous administration, an anti-nicotinic acetylcholine receptor monoclonal antibody (mAb35, National Hospital Organization Nagasaki Kawatana Medical Center) dissolved in PBS (pH 7.4) as a drug for inducing the pathology of myasthenia gravis was administered intraperitoneally to all animals at 200 µg/rat (Day 0).\nThe Grip Strength Test was performed approximately 30 hours after antibody administration. The implementation procedure was the same as that in Example 3(1) B.", "note": "Bridge positions count the residues as written; N and C are the ends. Square brackets hold non-standard residues; d marks the D form. Peptide text beside a SMILES is read from it. I, II: the chains in the order shown. * marks the point of attachment. Palmitoyl = CCCCCCCCCCCCCCCC(=O)*; PEG3 = NCCOCCOCCOCCC(=O)O; Dap = NC[C@H](N)C(=O)O"}
{"smiles": "CCCCCCCCCCCCCCCC(=O)NCCCC[C@H](NC(=O)[C@H](CNC(=O)CCOCCOCCOCCNC(=O)CNC(=O)[C@@H]1CSCC(=O)N[C@H](Cc2ccc(O)cc2)C(=O)N2CCC[C@H]2C(=O)N[C@@H](CO)C(=O)N[C@@H](Cc2ccc(O)cc2)C(=O)N[C@@H](Cc2c[nH]cn2)C(=O)N[C@@H]([C@@H](C)O)C(=O)N[C@@H](CC(N)=O)C(=O)N[C@@H](C(C)C)C(=O)N[C@@H](C(C)C)C(=O)N[C@@H](C)C(=O)N[C@@H](CO)C(=O)N[C@@H](CC(C)C)C(=O)N[C@@H](CCCCN)C(=O)N[C@@H](CCCNC(=N)N)C(=O)N1)NC(=O)CCOCCOCCOCCNC(=O)CNC(=O)[C@@H]1CSCC(=O)N[C@H](Cc2ccc(O)cc2)C(=O)N2CCC[C@H]2C(=O)N[C@@H](CO)C(=O)N[C@@H](Cc2ccc(O)cc2)C(=O)N[C@@H](Cc2c[nH]cn2)C(=O)N[C@@H]([C@@H](C)O)C(=O)N[C@@H](CC(N)=O)C(=O)N[C@@H](C(C)C)C(=O)N[C@@H](C(C)C)C(=O)N[C@@H](C)C(=O)N[C@@H](CO)C(=O)N[C@@H](CC(C)C)C(=O)N[C@@H](CCCCN)C(=O)N[C@@H](CCCNC(=N)N)C(=O)N1)C(N)=O", "note": "[MuSK7-pal] (I: {CH2CO}-[dY]PSYHTNVVASLKRCG[PEG3][Dap]K(Palmitoyl)-NH2 / II: {CH2CO}-[dY]PSYHTNVVASLKRCG[PEG3]; amide I:18-II:C; thioether I:N-I:15, II:N-II:15)", "values": [{"measurement": "grip strength", "setting": "0.1 mg/kg intravenously (Group D, Example 3(2))", "result": 452, "unit": "g"}, {"measurement": "grip strength", "setting": "0.25 mg/kg intravenously (Group C, Example 3(2))", "result": 476, "unit": "g"}, {"measurement": "grip strength", "setting": "0.5 mg/kg intravenously (Group B, Example 3(2))", "result": 461, "unit": "g"}, {"measurement": "grip strength", "setting": "1 mg/kg intravenously (Group D, Example 3(1))", "result": 577, "unit": "g"}, {"measurement": "grip strength", "setting": "2 mg/kg intravenously (Group C, Example 3(1))", "result": 474, "unit": "g"}, {"measurement": "grip strength", "setting": "3 mg/kg intravenously (Group B, Example 3(1))", "result": 467, "unit": "g"}]}
